One assay deals with T1, rHDHFR (Homo sapiens, UniProt P00374).
T1 construct: purchased Sigma
T1 sequence (P00374 1-187): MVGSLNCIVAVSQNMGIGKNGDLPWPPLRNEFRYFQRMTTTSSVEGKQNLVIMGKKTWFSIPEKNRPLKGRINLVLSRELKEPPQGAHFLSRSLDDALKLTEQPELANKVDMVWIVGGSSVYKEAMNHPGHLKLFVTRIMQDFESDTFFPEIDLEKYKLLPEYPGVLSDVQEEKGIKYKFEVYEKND
Put plainly: rHDHFR inhibition, progress curves. It is filed as biochemical. Here is the method: The experiments were carried out in the same buffer as fluorescence experiments in the presence of NADPH (100 μM), DHF (10 μM), and rHDHFR (1.5 nM).
The activity of rHDHFR was determined at 25° C. by following the decrease in the absorbance of NADPH and DHF at 340 nm (ε=11800 M-1 cm−1) (Stone and Morrison, 1986). Progress curves were obtained under ordered conditions ([NADPH]>>[DHF]). rHDHFR inhibition constants were calculated as described by Navarro-Perán et al., 2005b. The dissociation constant for the binding of inhibitors to free rHDHFR was determined at 25° C. by fluorescence titration in an automatic-scanning Perkin-Elmer LS50B spectrofluorimeter. Fluorescence emission spectra were recorded when rHDHFR fluorescence was excited at 290 nm. Stopped-flow fluorescence experiments were carried out using an Applied Photophysics Ltd. Pi-Star 180 spectrometer with a stopped-flow unit at 25° C.

A further assay relates to B16 melanoma cells. Kind of assay: Metastasis model, B16 cells injected into tail vein. The following applies: TMECG 20 mg/Kg/d plus Dipyridamol 10 mg/Kg/d intraperitoneal, 30 days, female mice. It is filed as in vivo, mouse. Here is the method:
B16 melanoma cells were injected into the tail vein, allowing microtumours to develop (1 week), then, the animal were treated for 21 days with […]) plus Dipyridamol (10 mg/Kg/d) by intraperitoneal injection. The animals were sacrifice and lungs and liver analyzed for tumor growth. We have now increased the number of treated and control animals (treated 21 female mice compared with 21 control (untreated) females) and the time of treatment (30 days). […] 31).

Another assay relates to MCF7 cells. Kind of assay: MTT cell proliferation assay, MCF7. It is filed as cell-based. The note with it: Homo sapiens, 144 h; MCF7, 6 days of treatment. Here is the method: (§1) Four human cancer cells lines (SkMel-28, MCF7, H1264 and Caco-2) were obtained from the American Type Tissue Culture Collection (ATCC) and were maintained in appropriate culture mediums supplemented with 10% fetal calf serum (FCS) and antibiotics, under standard tissue culture conditions (e.g. modified Eagle's medium (MEM) containing 1 mM sodium pyruvate and 10% fetal bovine serum (FES) under 5% CO2/95% air atmosphere.). Cell injury was evaluated by a colorimetric assay for mitochondrial function using the 3-(4,5-dimethylthiazolyl-2)-2,5-diphenyltetrazolium bromide (MTT) cell proliferation assay. For this assay cells were plated in a 96-well plate at a density of 1000 cells/well and grown until they reached 50-60% confluence. Human epidermal melanocytes (HeM) were supplied by Gentaur and were cultured in HAM-F10 medium supplemented with 10% FCS, antibiotics and the human melanocyte growth supplement (Gentaur).

The next assay has as its system Caspase-3 mRNA. Put plainly: Caspase-3 mRNA expression (real-time PCR). It is filed as cell-based, human. The following applies: SkMel-28, 50 μM, 7 days. Here is the method: Histograms compare the estimated relative levels of the mRNA with respect to that of β-actin. Values represent the number of copies of mRNA per each 1×10^6 copies of β-actin.
cDNA samples (1 μL) were used for real-time PCR in a total volume of 20 μL using SYBR Green Reagent (Applied Biosystems) and specific primers on a 7500 Real Time PCR System of Applied Biosystems. The PCR amplification cycles included denaturation 95° C., 15 min; to activate HotStar Taq DNA polymerase and to minimize primer-dimer contribution), and amplification [over 40-50 cycles including denaturation (94° C.; 30 s), annealing (55° C.; 30 s), and extension (72° C.; 1 min)]. All PCR reactions were performed in triplicate and from at least two independent experiments. Non-RT control and negative control samples (without template) were processed in the same manner. The specificity of the amplification was verified by melting curve analysis for all samples, and occasionally by agarosa gel electrophoresis. Amplification of target gene sequences were compared against serial dilutions of know quantities of their purified cDNA fragments, and normalized to the abundance of the house-keeping gene β-actin.

For a further assay, the system named is SkMel-28 cells. Kind of assay: MTT cell proliferation assay, SkMel-28. It is filed as cell-based, human. The procedure:
as §1
Cell injury was evaluated by a colorimetric assay for mitochondrial function using the 3-(4,5-dimethylthiazolyl-2)-2,5-diphenyltetrazolium bromide (MTT) cell proliferation assay. For this assay cells were plated in a 96-well plate at a density of 1000 cells/well and grown until they reached 30% confluence. Co-treatments of SkMel-28 cells with TMECG and other reagents were carried out by supplementing medium cultures with S-adenosylmethionine (SAM), adenosine or dipyridamole (all from Sigma).
A general note: Formazan colour is commonly taken as a measure of viable cells.

Structures are written as SMILES. pIC50, pKi: −log10 of the molar value.

The pKi is the negative decadic logarithm of the Ki, by convention in mol/L. Usually pIC50 stands for −log10 of the IC50, conventionally taken in molar units. As to `COc1cc(C(=O)O[C@@H]2Cc3c(O)cc(O)cc3O[C@@H]2c2ccc(O)c(O)c2)cc(OC)c1OC` [TMECG, 3-O-(3,4,5-trimethoxybenzoyl)-(−)-epicatechin], at rHDHFR (decrease of KI to KI* by further EI-complex reactions), the “Decrease % further EI reactions” value is reported as 19 −fold. At rHDHFR (read-out: effective inhibition constant (KI*)), the pKi is 6.96. In the assay on B16 melanoma cells, the lung metastasis entry is “reduction on lung metastasis”. Moreover, the pIC50 with MCF7 cells is 4.10; with SkMel-28 cells (Homo sapiens, SK-MEL-28, 144 h, SkMel-28, 6 days of treatment, read-out: IC50 (at 6 days)) it was 5.54. The “Caspase-3 mRNA, higher than in HeM or untreated SkMel-28” value in the assay with Caspase-3 mRNA is recorded as “around 30 times”. The “effect of leucovorin co-treatment on growth inhibition” value in the assay with SkMel-28 cells (100 μM leucovorin, MTX 1 μM or TMECG 50 μM, 3 days) is recorded as “did not”. For the same molecule, the inhibition at 50 µM with SkMel-28 cells (Homo sapiens, SK-MEL-28, 120 h, 50 μM, five days of treatment, read-out: growth of SkMel-28 inhibited) was over 60%. In the assay with SkMel-28 cells (SkMel-28), the “effect of natural and synthetic catechins on SkMel-28 growth” value is given as “highly inhibited”. The “DNA fragmentation (apoptosis)” value in the assay with SkMel-28 cells (SkMel-28, 50 μM, 7 days) was “visible after treatment”. Moreover, the “effect of sulfasalazine (RFC inhibitor) on antiproliferative action” value with SkMel-28 cells (sulfasalazine 0.5 mM, MTX 0.2 μM or TMECG 10 μM, 3 days) is on record as “enhancing TMECG antiproliferative activity”.
